# Molecular target: T1, human organic cation transporter 3 (hOCT3) (Homo sapiens, UniProt O75751)
# T1 construct: expressed in transfected cells; host or cells: HEK293
# T1 sequence (O75751 1-556): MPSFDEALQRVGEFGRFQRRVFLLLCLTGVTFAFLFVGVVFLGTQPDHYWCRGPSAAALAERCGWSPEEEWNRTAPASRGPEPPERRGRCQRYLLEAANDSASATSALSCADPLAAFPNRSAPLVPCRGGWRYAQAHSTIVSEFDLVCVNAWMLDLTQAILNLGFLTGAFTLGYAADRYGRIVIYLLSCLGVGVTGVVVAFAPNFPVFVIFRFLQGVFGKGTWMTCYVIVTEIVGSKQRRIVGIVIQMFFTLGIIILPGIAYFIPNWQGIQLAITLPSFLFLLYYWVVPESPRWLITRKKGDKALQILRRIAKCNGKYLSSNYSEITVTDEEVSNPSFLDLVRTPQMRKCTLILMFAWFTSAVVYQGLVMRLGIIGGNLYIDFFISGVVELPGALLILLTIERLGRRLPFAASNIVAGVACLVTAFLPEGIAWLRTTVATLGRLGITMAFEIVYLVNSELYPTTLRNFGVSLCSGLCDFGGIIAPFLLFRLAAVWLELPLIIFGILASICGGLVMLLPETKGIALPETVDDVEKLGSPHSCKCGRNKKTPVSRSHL
# Experiment: Histamine incorporation experiment in HEK293 cells expressing hOCT3 (OCT3 inhibition activity)
# Type: cell-based
# Settings: HEK293, 1 min; Compound Concentration 30 μM; [3H]histamine 100 nM, 1 minute; no inhibitor = 100%; read-out: Histamine Incorporation Rate to Control (%)
# Procedure: In order to measure an activity that inhibits OCT3 from incorporating a substrate (OCT3 inhibition activity) for each compound, histamine incorporation experiments as described below were performed.
# Histamine incorporation experiments were performed in accordance with a method disclosed in Br J Pharmacol. 2002; 136(6): 829-836. In the experiments, HEK293 cells were used. The HEK293 cell is a human embryonal renal cell strain expressing human organic cation transporter 3 (hOCT3). The HEK 293 cells were inoculated onto 24-well plates at 1.5×10^5 cells/well, and were cultivated overnight in a carbon dioxide incubator. Test substances were dissolved in 100% DMSO solution and then dissolved in HBSS-HEPES solution (buffer solution prepared by dissolving 9.7 g Hank's Balanced Salt, 1.4% sodium bicarbonate 25 mL, and 1M HEPES 25 mL in 940 mL ultra pure water, and by adjusting to pH7.4 with 1M sodium hydroxide). After removing culture media for cell culture, pretreatment was performed for 5 minutes with 1 mL HBSS-HEPES solution. Then, the test substance and [3H]histamine (final concentration 100 nM) were added to the cells and reacted for 1 minute at room temperature. After the reaction was completed, the reaction was stopped by ice-cooled HBSS-HEPES solution, extracellular fluid was aspirated by an aspirator, and then the cells were washed twice with HBSS-HEPES. After washing, the cells were dissolved in 0.5M sodium hydroxide solution. The amount of histamine in the cells was found by measuring a radioactivity in a cell lysis solution by a liquid scintillation counter. Protein content in the cells was measured by Lowry method (J Biol Chem. 1951; 193(1): 265-75) by using the cell lysis solution, and translated into histamine incorporation amount per protein content for each experiment. A histamine incorporation rate (%) in the presence of 30 μM of the test substance was calculated by regarding a histamine incorporation amount in a case of no incorporation inhibitor as 100% (control) of histamine incorporation rate. A value (%) obtained by subtracting the histamine incorporation rate from 100(%) was calculated as an OCT3 inhibition rate (%).
# Note that a histamine incorporation rate (%) in the presence of 10 μM of the test substance was calculated by regarding a histamine incorporation amount in a case of no incorporation inhibitor as 100% (control) of histamine incorporation rate. A value (%) obtained by subtracting the histamine incorporation rate from 100(%) was calculated as an OCT3 inhibition rate (%). […]
row,SMILES,remaining activity at 30 µM
1,NC(N)=Nc1nc(CCCC/C(N)=N/S(N)(=O)=O)cs1 [SR-2066],58.1%
2,N#C/N=C(\N)NCCCCc1csc(N=C(N)N)n1 [SR-2069],48.6%
3,NC(N)=Nc1nc(CCCCNC(=O)CO)cs1 [SR-2073],52.9%
4,NC(N)=Nc1cc(CSCCC(N)=NS(N)(=O)=O)ccn1 [SR-2229],55.8%
5,NC(N)=Nc1cccc(CSCCC(N)=NS(N)(=O)=O)n1 [SR-2230],41.4%

# Same assay, conditions: HEK293; Compound Concentration 30 μM; 100% minus histamine incorporation rate
row,SMILES,inhibition at 30 µM
1,NC(N)=Nc1nc(CCCC/C(N)=N/S(N)(=O)=O)cs1 [SR-2066],41.9%
2,N#C/N=C(\N)NCCCCc1csc(N=C(N)N)n1 [SR-2069],51.4%
3,NC(N)=Nc1nc(CCCCNC(=O)CO)cs1 [SR-2073],47.1%
4,NC(N)=Nc1cc(CSCCC(N)=NS(N)(=O)=O)ccn1 [SR-2229],44.2%
5,NC(N)=Nc1cccc(CSCCC(N)=NS(N)(=O)=O)n1 [SR-2230],58.6%

# Same assay, conditions: Tables 3-1 to 3-15; in a manner similar to Example 12 (30 μM there); concentration not given in the tables
row,SMILES,OCT3 Inhibition Rate (%)
1,CN(C)c1nc(CSCC/C(N)=N/S(=O)(=O)C(F)(F)F)cs1 [SR-2005],−7.8%
2,Cc1nc(CCSCc2csc(N(C)C)n2)[nH]c(=O)c1CCc1ccccc1 [SR-2011],37.9%
3,NC(N)=Nc1cccc(CSCC/C(N)=N/S(=O)(=O)C(F)(F)F)c1 [SR-2020],25.4%
4,CN/C(=C\[N+](=O)[O-])NCCSCc1csc(N=C(N)N)n1 [SR-2044],7.9%
5,NC(N)=Nc1nc(CSCCc2ncc(CCc3ccccc3)o2)cs1 [SR-2051],38.8%
6,Cc1nc(CCCOc2cc(N=C(N)N)ccn2)[nH]c(=O)c1CCc1ccccc1 [SR-2064],17.5%
7,"N=C(N)CCCCc1csc(N=C(N)N)n1 [SR-2068, 5-[2-(diaminomethyleneamino)thiazole-4-yl]pentaimideamide]",28.5%
8,N=C(N)NCCCCc1csc(N=C(N)N)n1 [SR-2071],27.0%
9,CNC(=O)CCCCc1csc(N=C(N)N)n1 [SR-2075],23.9%
10,CNC(=O)CCSCc1csc(N=C(N)N)n1 [SR-2203],16.3%
11,CNCCCCc1csc(N=C(N)N)n1 [SR-2204],3.4%
12,"CC(C)c1nc(CSCCC(N)=NS(N)(=O)=O)cs1 [SR-2207, (Z)-3-((2-isopropylthiazol-4-yl)methylthio)-N′-sulfamoylpropanimidamide]",6.7%
13,Cc1nc(CCSCc2csc(N=C3NCCN3)n2)[nH]c(=O)c1CCc1ccccc1 [SR-2213],45.8%
14,NC(N)=Nc1nc(CSCCC(N)=NS(=O)(=O)C(F)(F)F)cs1 [SR-2216],61.5%
15,CC(=O)NC(=O)CCSCc1csc(N=C(N)N)n1 [SR-2225],30.4%
16,NC(N)=Nc1nc(CSCCC(=O)NC(=O)c2ccccc2)cs1 [SR-2226],21.8%
17,CSc1nc(CSCCC(N)=NS(N)(=O)=O)cs1 [SR-2227],13.8%
18,Cc1nc(CSCC/C(N)=N/S(N)(=O)=O)cs1 [SR-2228],17.6%
19,N=C(N)CCSCc1ccc([N+](=O)[O-])o1 [SR-2233],4.7%
20,N=C(N)CCSCc1ccc([N+](=O)[O-])n1Cc1ccccc1 [SR-2234],50.2%
21,Cc1nc(CCSCc2ccc([N+](=O)[O-])n2Cc2ccccc2)[nH]c(=O)c1CCc1ccccc1 [SR-2235],8.7%
22,N=C(N)NCc1csc(N=C(N)N)n1 [SR-2236],−1.4%
23,Cc1nc(CSCC/C(N)=N/S(=O)(=O)C(F)(F)F)cs1 [SR-2238],−7.4%
24,Cc1nc(CSCCc2nc(=O)c(CCc3ccccc3)c(C)[nH]2)cs1 [SR-2239],33.2%
25,NC(CCSCc1cscn1)=NS(N)(=O)=O [SR-3001],−14.7%
26,NC(CCSCc1cscn1)=NS(=O)(=O)C(F)(F)F [SR-3002],−0.2%
27,Cc1[nH]c(CCSCc2cscn2)nc(=O)c1CCc1ccccc1 [SR-3003],40.6%
28,CSc1nc(CSCCC(N)=NS(=O)(=O)C(F)(F)F)cs1 [SR-3012],−8.1%
29,CC(C)c1nc(CSCCC(N)=NS(=O)(=O)C(F)(F)F)cs1 [SR-3021],−4.0%
30,NC(N)=Nc1nc(CSc2ccc(F)cc2)cs1 [SR-3123],47.2%

# From patent US9745274B2, “Compound, organic cation transporter 3 detection agent, and organic cation transporter 3 activity inhibitor” (SHIN NIPPON BIOMEDICAL LABORATORIES, LTD., priority 2013, dated 2017)
